Reference: patent US6582947B1, “Medical use of gene and vector encoding a multisubstrate deoxyribonucleoside kinase” (BIO VICI, priority 1998, dated 2003)
pIC50: −log10 of the molar value. Read-outs that look alike come from different tables or passages of the source.

Tests used:
[1] = biological target: T1, HSV-1 TK (Human herpesvirus 1, UniProt P0DTH5); test: biochemical
Method: (§1) The competion experiments were carried out in the following way: The standard reaction mixture contained 2.5 mM MgCl2, 10 mM dithio threitol, 1 mg/ml bovine serum albumin, 2.5 mM ATP, 10 mM NaF, 2 μM methyl-^3H-thymidine, an appropriate amount of a nucleoside analog and the multisubstrate deoxyribonucleoside kinase in an amount resulting in a linear conversion of the substrate, in a total reaction mixture of 50 μl of 50 mM Tris-HCl, pH 8.0. The reaction mixture was incubated at 37° C. for 30 min, and the reaction was terminated by spotting on to DE-81 discs (Whatman). The discs were instantly immersed and washed in ethanol (70%). The filters were dried and assayed for radioactivity in a tuluene-based scintillant.

[2] = biological target: T2, deoxyguanosine kinase (Homo sapiens, UniProt Q16854); settings: cited from earlier work
T2 sequence (Q16854 40-277): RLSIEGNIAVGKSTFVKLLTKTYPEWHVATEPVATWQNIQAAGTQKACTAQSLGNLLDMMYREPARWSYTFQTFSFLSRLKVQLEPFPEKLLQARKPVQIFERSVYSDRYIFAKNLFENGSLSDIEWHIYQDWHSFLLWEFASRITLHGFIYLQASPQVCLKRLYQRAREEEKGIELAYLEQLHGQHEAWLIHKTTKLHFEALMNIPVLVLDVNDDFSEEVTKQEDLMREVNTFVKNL

[3] = test system: HSV-TK; settings: cited from earlier work
[4] = biological target: T3, recombinant Dm-dNK (Drosophila melanogaster, UniProt Q9XZT6); test: Phosphoryl transfer assay, substrate specificity of recombinant Dm-dNK; settings: naturally occurring nucleosides
T3 sequence (Q9XZT6 1-250): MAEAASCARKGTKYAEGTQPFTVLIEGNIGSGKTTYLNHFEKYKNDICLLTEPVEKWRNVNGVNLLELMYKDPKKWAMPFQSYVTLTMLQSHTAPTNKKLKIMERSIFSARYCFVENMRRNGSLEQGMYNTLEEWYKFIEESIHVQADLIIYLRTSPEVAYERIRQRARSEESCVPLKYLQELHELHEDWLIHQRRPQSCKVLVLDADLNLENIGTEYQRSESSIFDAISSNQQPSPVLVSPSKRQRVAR
Method: A phosphor transferase assay was used to determine the substrate specificity of the putative deoxyribonucleoside kinase. […] The samples were incubated 30 min at 37° C. 2 μl of the reaction mixtures were spotted on poly(ethyleneimine) cellulose F thin layer chromatography sheets (Merck Inc.) and the nucleotide separated in a buffer containing NH4OH:isobutyric acid:dH2O (1:66:33). The sheets were autoradiographed using phosphoimaging plates (BAS 1000, Fujix).

[5] = biological target: T1, HSV-1 TK
Method: as §1

T1 sequence (P0DTH5 whole entry): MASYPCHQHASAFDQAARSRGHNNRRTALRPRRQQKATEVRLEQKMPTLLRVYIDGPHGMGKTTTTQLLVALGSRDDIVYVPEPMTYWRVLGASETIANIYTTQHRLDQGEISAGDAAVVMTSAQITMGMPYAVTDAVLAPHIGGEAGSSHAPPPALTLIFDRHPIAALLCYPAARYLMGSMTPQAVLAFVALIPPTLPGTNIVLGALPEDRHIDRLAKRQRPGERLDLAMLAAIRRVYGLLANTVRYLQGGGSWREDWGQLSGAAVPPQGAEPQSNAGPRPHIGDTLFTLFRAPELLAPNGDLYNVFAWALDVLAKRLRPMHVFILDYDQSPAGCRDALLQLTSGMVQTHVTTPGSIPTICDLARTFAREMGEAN

Structure (SMILES)	pIC50 [1]	phosphorylation by deoxyguanosine kinase (in words) [2]	phosphorylation by HSV-TK (in words) [3]	phosphorylation by the enzyme (in words) [4]	pIC50 [5]
Nc1ccn([C@@H]2O[C@H](CO)[C@@H](O)C2(F)F)c(=O)n1 [dFdC, 2′,2′-difluorodeoxycytidine]	< 3.00	does not phosphorylate	cannot phosphorylate		
O=c1[nH]c(=O)n([C@@H]2O[C@H](CO)[C@@H](O)[C@@H]2O)cc1/C=C/Br [BVaraU, (E)-5-(2-bromovinyl)-1-β-D-arabinofuranosyl-uracil]	5.40	does not phosphorylate			
Nc1ccn([C@H]2C[C@H](O)[C@@H](CO)O2)c(=O)n1 [deoxycytidine]				efficiently phosphorylated	
Nc1ccn([C@H]2CC[C@@H](CO)O2)c(=O)n1 [ddC, 2′,3′-dideoxycytidine]	< 3.00	does not phosphorylate	cannot phosphorylate		
Nc1ncnc2c1ncn2[C@H]1C[C@H](O)[C@@H](CO)O1 [deoxyadenosine]				efficiently phosphorylated	
Nc1ccn([C@@H]2O[C@H](CO)[C@@H](O)[C@@H]2O)c(=O)n1 [AraC, 1-β-D-arabinofuranosylcytosine]	< 3.00		cannot phosphorylate		
Nc1nc(Cl)nc2c1ncn2[C@H]1C[C@H](O)[C@@H](CO)O1 [CdA, 2-chloro-2′-deoxyadenosine]	< 3.00		cannot phosphorylate		
O=c1[nH]c(=O)n([C@H]2C[C@H](O)[C@@H](CO)O2)cc1F [FdU, 5-fluorodeoxyuridine]	4.24				
O=c1[nH]c(=O)n([C@@H]2O[C@H](CO)[C@@H](O)[C@@H]2F)cc1I [FIAU, 1-(2-deoxy-2-fluoro-β-D-arabinofuranosyl)-5-iodouracil]	5.70				
O=c1[nH]c(=O)n([C@H]2C[C@H](O)[C@@H](CO)O2)cc1/C=C/Br [BVDU, (E)-5-(2-bromovinyl)-2′-deoxyuridine]	5.52	does not phosphorylate			
Nc1nc2c(ncn2[C@H]2C[C@H](O)[C@@H](CO)O2)c(=O)[nH]1 [deoxyguanosine]				efficiently phosphorylated	
Nc1ccn(C2CSC(CO)O2)c(=O)n1 (stereo not shown) [3TC]		does not phosphorylate	cannot phosphorylate		< 3.00
